Key:
Test in all cases: Kinase inhibitor profiling, pEY phosphorylation
Assay type in all cases: biochemical
CSK = target: T1, CSK (Homo sapiens, UniProt P41240)
T1 construct: specificity data for proteins generated from a library of eighteen full-length clones; host or cells: rabbit reticulocyte lysate, TnT coupled in vitro transcription/translation (cell-free)

BMX = target: T2, BMX (Homo sapiens, UniProt P51813)
T2 construct: specificity data for proteins generated from a library of eighteen full-length clones; host or cells: rabbit reticulocyte lysate, TnT coupled in vitro transcription/translation (cell-free)
T2 sequence (P51813 1-675): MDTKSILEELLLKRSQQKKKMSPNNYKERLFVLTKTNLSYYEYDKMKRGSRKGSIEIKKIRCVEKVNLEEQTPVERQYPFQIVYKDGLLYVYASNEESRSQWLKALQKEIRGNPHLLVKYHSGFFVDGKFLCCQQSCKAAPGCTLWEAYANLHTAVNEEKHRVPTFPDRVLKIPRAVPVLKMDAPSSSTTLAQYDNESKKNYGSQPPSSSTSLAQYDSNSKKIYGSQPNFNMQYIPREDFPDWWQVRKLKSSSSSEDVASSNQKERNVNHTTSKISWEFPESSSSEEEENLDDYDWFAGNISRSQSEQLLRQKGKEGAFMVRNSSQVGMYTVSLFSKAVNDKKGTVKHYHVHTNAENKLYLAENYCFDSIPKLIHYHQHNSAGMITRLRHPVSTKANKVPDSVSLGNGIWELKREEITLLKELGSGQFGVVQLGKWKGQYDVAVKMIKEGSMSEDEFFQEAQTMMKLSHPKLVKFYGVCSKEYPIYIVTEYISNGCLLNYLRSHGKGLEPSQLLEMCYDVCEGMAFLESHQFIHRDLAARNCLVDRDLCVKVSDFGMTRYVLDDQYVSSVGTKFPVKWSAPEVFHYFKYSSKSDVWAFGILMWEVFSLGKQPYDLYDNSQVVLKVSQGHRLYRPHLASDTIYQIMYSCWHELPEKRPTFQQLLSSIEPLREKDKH

Tek = target: T3, Tek (Mus musculus, UniProt Q02858)
T3 construct: specificity data for proteins generated from a library of eighteen full-length clones; host or cells: rabbit reticulocyte lysate, TnT coupled in vitro transcription/translation (cell-free)

SYK = target: T4, SYK (Homo sapiens, UniProt P43405)
T4 construct: autophosphorylation activity from full-length clones Spleen Tyrosine Kinase (SYK) and Eph receptor-A7 (EphA7); host or cells: rabbit reticulocyte lysate, TnT coupled in vitro transcription/translation (cell-free)

SRC = target: T5, SRC (Mus musculus, UniProt P05480)
T5 construct: specificity data for proteins generated from a library of eighteen full-length clones; host or cells: rabbit reticulocyte lysate, TnT coupled transcription/translation

HCK = target: T6, HCK (Homo sapiens, UniProt P08631)
T6 construct: specificity data for proteins generated from a library of eighteen full-length clones; host or cells: rabbit reticulocyte lysate, TnT coupled in vitro transcription/translation (cell-free)

PTK2B = target: T7, PTK2B (Homo sapiens, UniProt Q14289)
T7 construct: specificity data for proteins generated from a library of eighteen full-length clones; host or cells: rabbit reticulocyte lysate, TnT coupled in vitro transcription/translation (cell-free)
T7 sequence (Q14289 whole entry): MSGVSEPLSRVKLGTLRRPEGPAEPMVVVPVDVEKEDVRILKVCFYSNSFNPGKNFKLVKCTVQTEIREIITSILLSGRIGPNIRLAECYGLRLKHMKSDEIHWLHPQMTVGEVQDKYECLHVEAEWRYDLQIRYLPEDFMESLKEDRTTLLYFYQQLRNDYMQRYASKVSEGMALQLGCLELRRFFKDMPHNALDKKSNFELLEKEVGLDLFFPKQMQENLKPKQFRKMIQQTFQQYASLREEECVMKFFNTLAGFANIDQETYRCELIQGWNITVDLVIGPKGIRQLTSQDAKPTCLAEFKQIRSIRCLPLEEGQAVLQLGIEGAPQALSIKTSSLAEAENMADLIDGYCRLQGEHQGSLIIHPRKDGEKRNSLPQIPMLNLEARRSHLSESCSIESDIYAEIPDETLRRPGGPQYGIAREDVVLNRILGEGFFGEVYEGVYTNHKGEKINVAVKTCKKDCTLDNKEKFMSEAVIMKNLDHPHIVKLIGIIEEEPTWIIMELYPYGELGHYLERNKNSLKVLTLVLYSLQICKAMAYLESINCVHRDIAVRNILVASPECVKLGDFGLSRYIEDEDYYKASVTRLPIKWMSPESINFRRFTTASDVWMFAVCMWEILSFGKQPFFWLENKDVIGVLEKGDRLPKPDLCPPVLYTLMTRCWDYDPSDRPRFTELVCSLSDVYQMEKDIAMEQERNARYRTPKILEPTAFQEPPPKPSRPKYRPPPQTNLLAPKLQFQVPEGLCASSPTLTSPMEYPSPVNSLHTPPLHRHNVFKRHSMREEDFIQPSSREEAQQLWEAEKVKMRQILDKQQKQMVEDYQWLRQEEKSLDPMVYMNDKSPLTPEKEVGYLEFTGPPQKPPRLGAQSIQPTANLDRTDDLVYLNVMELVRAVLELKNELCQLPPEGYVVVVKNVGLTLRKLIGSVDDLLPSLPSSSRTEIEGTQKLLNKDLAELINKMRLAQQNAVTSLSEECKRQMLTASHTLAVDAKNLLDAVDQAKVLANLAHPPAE

T6 sequence (P08631 whole entry): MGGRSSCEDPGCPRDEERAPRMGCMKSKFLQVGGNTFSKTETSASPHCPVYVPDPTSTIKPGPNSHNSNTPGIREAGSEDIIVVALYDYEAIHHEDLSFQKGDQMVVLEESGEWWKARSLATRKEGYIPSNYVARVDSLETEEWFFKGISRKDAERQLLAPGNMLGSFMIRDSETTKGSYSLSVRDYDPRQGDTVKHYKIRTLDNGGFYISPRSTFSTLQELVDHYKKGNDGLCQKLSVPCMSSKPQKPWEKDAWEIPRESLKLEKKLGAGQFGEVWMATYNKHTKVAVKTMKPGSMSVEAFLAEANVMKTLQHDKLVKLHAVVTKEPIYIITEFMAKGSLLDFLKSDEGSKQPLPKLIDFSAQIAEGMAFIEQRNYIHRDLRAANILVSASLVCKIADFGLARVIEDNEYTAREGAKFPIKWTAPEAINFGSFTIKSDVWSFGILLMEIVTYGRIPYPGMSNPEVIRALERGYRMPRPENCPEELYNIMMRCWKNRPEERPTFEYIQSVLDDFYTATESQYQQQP
T3 sequence (Q02858 23-1122): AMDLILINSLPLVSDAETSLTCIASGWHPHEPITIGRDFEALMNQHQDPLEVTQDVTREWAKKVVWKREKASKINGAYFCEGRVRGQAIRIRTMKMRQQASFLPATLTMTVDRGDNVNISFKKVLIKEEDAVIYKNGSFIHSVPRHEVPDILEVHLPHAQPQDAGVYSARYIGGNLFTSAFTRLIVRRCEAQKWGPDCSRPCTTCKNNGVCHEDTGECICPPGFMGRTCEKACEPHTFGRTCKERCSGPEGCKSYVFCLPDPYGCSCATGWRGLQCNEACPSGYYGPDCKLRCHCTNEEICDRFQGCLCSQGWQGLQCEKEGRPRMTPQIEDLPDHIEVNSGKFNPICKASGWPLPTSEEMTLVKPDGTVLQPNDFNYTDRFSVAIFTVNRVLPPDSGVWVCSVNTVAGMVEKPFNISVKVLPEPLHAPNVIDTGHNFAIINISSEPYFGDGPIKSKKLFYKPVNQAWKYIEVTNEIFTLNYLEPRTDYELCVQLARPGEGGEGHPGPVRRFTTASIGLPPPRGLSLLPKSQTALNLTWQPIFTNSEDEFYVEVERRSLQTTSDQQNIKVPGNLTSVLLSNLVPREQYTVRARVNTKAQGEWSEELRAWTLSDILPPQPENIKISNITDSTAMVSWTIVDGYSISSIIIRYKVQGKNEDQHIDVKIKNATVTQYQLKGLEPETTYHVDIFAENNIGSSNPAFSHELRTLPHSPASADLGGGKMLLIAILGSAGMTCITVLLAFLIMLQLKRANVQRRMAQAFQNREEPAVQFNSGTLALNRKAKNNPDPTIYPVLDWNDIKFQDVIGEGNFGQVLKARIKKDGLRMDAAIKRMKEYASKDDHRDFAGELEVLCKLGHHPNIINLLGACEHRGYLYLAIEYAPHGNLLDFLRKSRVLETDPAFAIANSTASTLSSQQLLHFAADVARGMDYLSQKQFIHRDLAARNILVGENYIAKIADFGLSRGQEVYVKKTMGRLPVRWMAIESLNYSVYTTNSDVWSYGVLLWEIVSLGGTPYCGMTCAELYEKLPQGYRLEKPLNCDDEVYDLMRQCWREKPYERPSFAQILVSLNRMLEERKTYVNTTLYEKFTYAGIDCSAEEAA
T1 sequence (P41240 whole entry): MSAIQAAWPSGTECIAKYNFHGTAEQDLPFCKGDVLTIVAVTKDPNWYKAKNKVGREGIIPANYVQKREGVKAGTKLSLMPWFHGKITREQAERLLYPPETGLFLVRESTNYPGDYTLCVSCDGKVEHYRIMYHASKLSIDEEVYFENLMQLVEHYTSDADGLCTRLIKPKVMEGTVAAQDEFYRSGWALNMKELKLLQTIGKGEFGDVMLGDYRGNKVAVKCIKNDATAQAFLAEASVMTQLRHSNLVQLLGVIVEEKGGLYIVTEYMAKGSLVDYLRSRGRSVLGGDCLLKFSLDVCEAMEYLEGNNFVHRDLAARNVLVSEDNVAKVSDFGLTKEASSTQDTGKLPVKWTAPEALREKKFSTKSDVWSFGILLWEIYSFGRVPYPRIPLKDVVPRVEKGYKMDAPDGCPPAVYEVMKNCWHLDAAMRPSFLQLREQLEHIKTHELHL
T5 sequence (P05480 whole entry): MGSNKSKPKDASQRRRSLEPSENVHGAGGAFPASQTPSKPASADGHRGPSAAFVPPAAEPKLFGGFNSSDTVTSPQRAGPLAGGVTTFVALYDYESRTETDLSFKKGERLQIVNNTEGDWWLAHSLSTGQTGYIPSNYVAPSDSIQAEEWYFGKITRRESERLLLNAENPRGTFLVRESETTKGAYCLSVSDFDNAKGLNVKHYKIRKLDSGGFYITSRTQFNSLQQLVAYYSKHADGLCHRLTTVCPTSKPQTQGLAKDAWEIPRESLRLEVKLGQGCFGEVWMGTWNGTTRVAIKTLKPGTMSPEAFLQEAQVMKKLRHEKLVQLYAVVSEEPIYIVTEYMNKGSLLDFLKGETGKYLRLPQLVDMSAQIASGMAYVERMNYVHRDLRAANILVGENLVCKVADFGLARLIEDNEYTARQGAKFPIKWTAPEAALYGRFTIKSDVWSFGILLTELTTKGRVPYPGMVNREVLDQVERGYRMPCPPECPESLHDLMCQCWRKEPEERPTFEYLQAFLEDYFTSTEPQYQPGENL

Structure (SMILES) | Inhibition specificity towards pEY phosphorylation at 10X IC50, CSK (CSK) | Inhibition specificity towards pEY phosphorylation at 10X IC50, BMX (BMX) | Inhibition specificity towards pEY phosphorylation at 10X IC50, Tek (Tek) | Inhibition specificity towards pEY phosphorylation at 10X IC50, SYK (SYK) | Inhibition specificity towards pEY phosphorylation at 10X IC50, Src (SRC) | Inhibition specificity towards pEY phosphorylation at 10X IC50, HCK (HCK) | Inhibition specificity towards pEY phosphorylation at 10X IC50, PTK2B (PTK2B)
COC(=O)c1ccc(NCc2cc(O)ccc2O)cc1 [AG-957] | M (medium inhibition (“M”=between 25 to 50% of the activity remaining)) | L (low inhibition (“L”=between 50–75% of the activity remaining)) | L (low inhibition (“L”=between 50–75% of the activity remaining)) | – | – | – | –
CC(C)(C)c1cc(C=C(C#N)C#N)cc(Br)c1O [AG-1024] | – | – | L (low inhibition (“L”=between 50–75% of the activity remaining)) | L (low inhibition (“L”=between 50–75% of the activity remaining)) | – | – | –
Cc1cc2ncc(-c3ccc(O)c(O)c3)nc2cc1C [AG-1433] | M (medium inhibition (“M”=between 25 to 50% of the activity remaining)) | H (high inhibition (“H”=less than 25% of the activity remaining)) | M (medium inhibition (“M”=between 25 to 50% of the activity remaining)) | M (medium inhibition (“M”=between 25 to 50% of the activity remaining)) | H (high inhibition (“H”=less than 25% of the activity remaining)) | M (medium inhibition (“M”=between 25 to 50% of the activity remaining)) | L (low inhibition (“L”=between 50–75% of the activity remaining))
COc1c(C=O)c(O)cc2c1C(=O)c1ccccc1C2=O [Damnacanthal] | H (high inhibition (“H”=less than 25% of the activity remaining)) | H (high inhibition (“H”=less than 25% of the activity remaining)) | M (medium inhibition (“M”=between 25 to 50% of the activity remaining)) | H (high inhibition (“H”=less than 25% of the activity remaining)) | H (high inhibition (“H”=less than 25% of the activity remaining)) | H (high inhibition (“H”=less than 25% of the activity remaining)) | H (high inhibition (“H”=less than 25% of the activity remaining))
Cc1ccc(-c2nn(C(C)(C)C)c3ncnc(N)c23)cc1 [PP1] | – | L (low inhibition (“L”=between 50–75% of the activity remaining)) | – | – | – | – | –
COc1cc2ncnc(Nc3ccc(O)cc3)c2cc1OC [WHI-P131] | – | L (low inhibition (“L”=between 50–75% of the activity remaining)) | L (low inhibition (“L”=between 50–75% of the activity remaining)) | – | L (low inhibition (“L”=between 50–75% of the activity remaining)) | L (low inhibition (“L”=between 50–75% of the activity remaining)) | L (low inhibition (“L”=between 50–75% of the activity remaining))
